{"source": "patent US20260138949A1", "about": "“NOVEL COMPOUND AS PHOSPHOLIPASE D INHIBITOR AND USE THEREOF” (UIF (UNIVERSITY INDUSTRY FOUNDATION), YONSEI UNIVERSITY, priority 2022, published 2026)"}
{"system": "phospholipase D1", "test": "PLD activity in HCT116 cells ([3H]phosphatidylbutanol, TLC)", "type": "cell-based, human", "settings": "compound 10 μM, cells without the compound = 100%", "method": "(§1) To evaluate the inhibitory effect of the compounds according to the present invention on phospholipase D1 activity, experiments were conducted as follows.\n(§2) For the analysis of PLD activity in cells, human colon cancer cell line (HCT116) was cultured in a 6-well plate at 37° C. for 24 hours, washed twice with phosphate-buffered saline (PBS), and then replaced with medium containing [^3H]myristate and cultured for 24 hours. After the culture, the cells were washed three times with PBS, treated with 1-butanol, and the drug was added to a final concentration of 10 μM. The cells were trypsinized and suspended, and the amount of [^3H]phosphatidylbutanol produced in the cell suspension was measured and evaluated for PLD activity using thin layer chromatography (TLC), and the results are shown in Table 1 below.\n(§3) The Remaining activity % at 10 μM in Table 1 is calculated by setting the amount of [^3H]phosphatidylbutanol produced in cells without the compound as 100% and calculating the amount of [^3H]phosphatidylbutanol produced in cells treated with the compound as a percentage. Therefore, the lower the value of Remaining activity %, the higher the PLD inhibitory activity."}
{"smiles": "O=C(Cc1c[nH]c2ccccc12)NCc1cccc(C(F)(F)F)c1", "note": "[Example 1-42, 2-(1H-indol-3-yl)-N-(3-(trifluoromethyl)benzyl)acetamide]", "Remaining activity % at 10 μM": "34.44%"}
{"smiles": "Cc1cccc(CNC(=O)Cc2c[nH]c3ccccc23)c1", "note": "[Example 1-40, 2-(1H-indol-3-yl)-N-(3-methylbenzyl)acetamide]", "Remaining activity % at 10 μM": "95.87%"}
{"smiles": "COc1ccccc1NC(=O)Cc1c[nH]c2ccccc12", "note": "[Example 1-9, 2-(1H-indol-3-yl)-N-(2-methoxyphenyl)acetamide]", "Remaining activity % at 10 μM": "80.82%"}
{"smiles": "O=C(Cc1c[nH]c2ccccc12)Nc1cccc(Br)c1", "note": "[Example 1-16, N-(3-bromophenyl)-2-(1H-indol-3-yl)acetamide]", "Remaining activity % at 10 μM": "97.25%"}
{"smiles": "COc1ccc(NC(=O)c2cc3ccccc3[nH]2)cc1OC", "note": "[Example 1-87, N-(3,4-dimethoxyphenyl)-1H-indole-2-carboxamide]", "Remaining activity % at 10 μM": "71.67%"}
{"smiles": "O=C(CCc1c[nH]c2ccccc12)NCc1ccc(Cl)c(Cl)c1", "note": "[Example 1-72, N-(3,4-dichlorobenzyl)-3-(1H-indol-3-yl)propanamide]", "Remaining activity % at 10 μM": "not active"}
{"smiles": "COC(=O)c1ccc(CNC(=O)Cc2c[nH]c3ccccc23)cc1", "note": "[Example 1-38, methyl 4-((2-(1H-indol-3-yl)acetamido)methyl)benzoate]", "Remaining activity % at 10 μM": "99.81%"}
{"smiles": "CCOC(=O)c1ccc(NC(=O)Cc2c[nH]c3ccccc23)cc1", "note": "[Example 1-29, ethyl 4-(2-(1H-indol-3-yl)acetamido)benzoate]", "Remaining activity % at 10 μM": "76.8%"}
{"smiles": "COc1ccc(NC(=O)c2cc3cc(F)ccc3[nH]2)cc1OC", "note": "[Example 1-93, N-(3,4-dimethoxyphenyl)-5-fluoro-1H-indole-2-carboxamide]", "Remaining activity % at 10 μM": "58.09%"}
{"smiles": "COc1ccc(NC(=O)Cc2c[nH]c3ccccc23)cc1OC", "note": "[Example 1-28, N-(3,4-dimethoxyphenyl)-2-(1H-indol-3-yl)acetamide]", "Remaining activity % at 10 μM": "not active"}
{"smiles": "O=C(Cc1c[nH]c2ccccc12)Nc1cc(C(F)(F)F)cc(C(F)(F)F)c1", "note": "[Example 1-32, N-(3,5-bis(trifluoromethyl)phenyl)-2-(1H-indol-3-yl)acetamide]", "Remaining activity % at 10 μM": "40.95%"}
{"smiles": "COc1ccc(NC(=O)Cc2c[nH]c3ccccc23)cc1", "note": "[Example 1-11, 2-(1H-indol-3-yl)-N-(4-methoxyphenyl)acetamide]", "Remaining activity % at 10 μM": "not active"}
{"smiles": "O=C(Nc1cc(C(F)(F)F)cc(C(F)(F)F)c1)c1cc2cc(Cl)ccc2[nH]1", "note": "[Example 1-99, N-(3,5-bis(trifluoromethyl)phenyl)-5-chloro-1H-indole-2-carboxamide]", "Remaining activity % at 10 μM": "not active"}
{"smiles": "O=C(Nc1ccc(Cl)c([N+](=O)[O-])c1)c1c[nH]c2ccccc12", "note": "[Example 1-1, N-(4-chloro-3-nitrophenyl)-1H-indole-3-carboxamide]", "Remaining activity % at 10 μM": "86.43%"}
{"smiles": "COc1ccc(NC(=O)c2c[nH]c3ccccc23)cc1OC", "note": "[Example 1-3, N-(3,4-dimethoxyphenyl)-1H-indole-3-carboxamide]", "Remaining activity % at 10 μM": "62.73%"}
{"smiles": "Cn1c(C(=O)Nc2cc(C(F)(F)F)cc(C(F)(F)F)c2)cc2cc(F)c(F)cc21", "note": "[Example 1-114, N-(3,5-bis(trifluoromethyl)phenyl)-5,6-difluoro-1-methyl-1H-indole-2-carboxamide]", "Remaining activity % at 10 μM": "48.24%"}
{"smiles": "O=C(Cc1c[nH]c2ccccc12)NCc1ccncc1", "note": "[Example 1-58, 2-(1H-indol-3-yl)-N-(pyridin-4-ylmethyl)acetamide]", "Remaining activity % at 10 μM": "not active"}
{"smiles": "O=C(CCCc1c[nH]c2ccccc12)Nc1ccc(F)cc1", "note": "[Example 1-75, N-(4-fluorophenyl)-4-(1H-indol-3-yl)butanamide]", "Remaining activity % at 10 μM": "not active"}
{"smiles": "COc1ccc(CNC(=O)Cc2c[nH]c3ccccc23)c(OC)c1", "note": "[Example 1-44, N-(2,4-dimethoxybenzyl)-2-(1H-indol-3-yl)acetamide]", "Remaining activity % at 10 μM": "54.83%"}
{"smiles": "O=C(Cc1c[nH]c2ccccc12)Nc1ccccc1", "note": "[Example 1-23, 2-(1H-indol-3-yl)-N-phenylacetamide]", "Remaining activity % at 10 μM": "not active"}
{"smiles": "O=C(Cc1c[nH]c2ccccc12)Nc1ccc(O)cc1", "note": "[Example 1-24, N-(4-hydroxyphenyl)-2-(1H-indol-3-yl)acetamide]", "Remaining activity % at 10 μM": "not active"}
{"smiles": "CCC(C)c1ccc(NC(=O)Cc2c[nH]c3ccccc23)cc1", "note": "(stereo not shown) [Example 1-34, N-(4-sec-butylphenyl)-2-(1H-indol-3-yl)acetamide]", "Remaining activity % at 10 μM": "66.07%"}
{"smiles": "O=C(Nc1ccc(F)cc1)c1cc2ccccc2[nH]1", "note": "[Example 1-83, N-(4-fluorophenyl)-1H-indole-2-carboxamide]", "Remaining activity % at 10 μM": "not active"}
{"smiles": "O=C(Cc1c[nH]c2ccccc12)NCc1ccccc1Cl", "note": "[Example 1-48, N-(2-chlorobenzyl)-2-(1H-indol-3-yl)acetamide]", "Remaining activity % at 10 μM": "75.72%"}
{"smiles": "O=C(Nc1cc(C(F)(F)F)cc(C(F)(F)F)c1)c1cc2ccccc2[nH]1", "note": "[Example 1-84, N-(3,5-bis(trifluoromethyl)phenyl)-1H-indole-2-carboxamide]", "Remaining activity % at 10 μM": "26.01%"}
{"smiles": "CC(C)c1ccc(NC(=O)Cc2c[nH]c3ccccc23)cc1", "note": "[Example 1-33, 2-(1H-indol-3-yl)-N-(4-isopropylphenyl)acetamide]", "Remaining activity % at 10 μM": "83.43%"}
{"smiles": "COc1cccc(NC(=O)Cc2c[nH]c3ccccc23)c1", "note": "[Example 1-10, 2-(1H-indol-3-yl)-N-(3-methoxyphenyl)acetamide]", "Remaining activity % at 10 μM": "89.33%"}
{"smiles": "O=C(Cc1c[nH]c2ccccc12)Nc1ccccc1F", "note": "[Example 1-12, N-(2-fluorophenyl)-2-(1H-indol-3-yl)acetamide]", "Remaining activity % at 10 μM": "not active"}
{"smiles": "COc1ccc(CNC(=O)c2cc3cc(F)ccc3[nH]2)cc1OC", "note": "[Example 1-94, N-(3,4-dimethoxybenzyl)-5-fluoro-1H-indole-2-carboxamide]", "Remaining activity % at 10 μM": "53.46%"}
{"smiles": "O=C(NCc1ccc(Cl)c(Cl)c1)c1c[nH]c2ccccc12", "note": "[Example 1-5, N-(3,4-dichlorobenzyl)-1H-indole-3-carboxamide]", "Remaining activity % at 10 μM": "89.34%"}
{"smiles": "O=C(CCc1c[nH]c2ccccc12)Nc1ccc(Cl)c([N+](=O)[O-])c1", "note": "[Example 1-68, N-(4-chloro-3-nitrophenyl)-3-(1H-indol-3-yl)propanamide]", "Remaining activity % at 10 μM": "not active"}
{"smiles": "COc1ccc(CNC(=O)Cc2c[nH]c3ccccc23)cc1OC", "note": "[Example 1-45, N-(3,4-dimethoxybenzyl)-2-(1H-indol-3-yl)acetamide]", "Remaining activity % at 10 μM": "41.05%"}
{"smiles": "O=C(Nc1ccc(Cl)c([N+](=O)[O-])c1)c1cc2ccccc2[nH]1", "note": "[Example 1-85, N-(4-chloro-3-nitrophenyl)-1H-indole-2-carboxamide]", "Remaining activity % at 10 μM": "53.78%"}
{"smiles": "O=C(Cc1c[nH]c2ccccc12)Nc1ccc(F)cc1", "note": "[Example 1-14, N-(4-fluorophenyl)-2-(1H-indol-3-yl)acetamide]", "Remaining activity % at 10 μM": "not active"}
{"smiles": "COc1ccc(CNC(=O)Cc2c[nH]c3ccccc23)cc1", "note": "[Example 1-39, 2-(1H-indol-3-yl)-N-(4-methoxybenzyl)acetamide]", "Remaining activity % at 10 μM": "91.57%"}
{"smiles": "O=C(Cc1c[nH]c2ccccc12)Nc1cc(F)cc(F)c1", "note": "[Example 1-18, N-(3,5-difluorophenyl)-2-(1H-indol-3-yl)acetamide]", "Remaining activity % at 10 μM": "97.19%"}
{"system": "phospholipase D1", "test": "PLD activity in HCT116 cells ([3H]phosphatidylbutanol, TLC)", "type": "cell-based, human", "settings": "compound 10 μM, cells without the compound = 100%, 10 µM", "method": "as §1, §2, §3", "units": {"Remaining activity % at 10 μM": "%"}}
{"smiles": "O=C(NNc1ccc(Cl)c(Cl)c1)c1cc2ccccc2[nH]1", "note": "[Example 1-6, N′-(3,4-dichlorophenyl)-1H-indole-2-carbohydrazide]", "Remaining activity % at 10 μM": 86.59}
